Measurements: paper PMC6784244 (Toxins, 2019)
In brackets after ≈: the same amount, converted by molar mass. Several values for one entry are separate records, joined by “and”; a condition that tells them apart may be missing. Identical values can stand only once.

Legend:
[1] = system: Candida albicans (DSMZ 10697); settings: DSMZ 10697, 24 h, pH 7
[2] = system: Staphylococcus aureus (ATCC CRM-6538P)
[3] = system: Bacillus subtilis (ATCC 6633)
[4] = system: C. perfringens; assay type: cell-based, Clostridium perfringens
[5] = system: N87 (human gastric cell line); settings: 48 h
[6] = system: F. verticillioides (DSMZ 62264); settings: DSMZ 62264, pH 7
[7] = system: Escherichia coli (ATCC 8739)
[8] = system: Pseudomonas aeruginosa (ATCC CRM-9027)
[9] = system: Nisin-resistant B. subtilis (DSMZ 347)
[10] = system: C. perfringens; assay type: cell-based, Clostridium perfringens; remark: listed apart in the source
[11] = system: Helicobacter pylori (ATCC 43504)
[12] = system: Methicillin-resistant S. aureus strain MRSA USA300
[13] = system: Mycobacterium smegmatis (mc2155, ATCC 700084); settings: mc2155, 72 h
[14] = system: human erythrocytes; settings: pH 7.4
[15] = system: Aspergillus flavus (DSMZ 1959); settings: DSMZ 1959, pH 7
[16] = lipid monolayer at air-water interface on PBS pH 7.4, peptide 1 µM, initial pressure 10-30 mN/m, extrapolated to delta pressure 0
Method: Peptide–lipid interaction was evaluated using reconstituted lipid monolayer at the air–water interface as previously described. Pure prokaryotic and eukaryotic lipids used were: POPC (1-palmitoyl-2-oleoyl-glycero-3-phosphocholine), POPE (1-palmitoyl-2-oleoyl-sn-glycero-3-phosphoethanolamine), POPG (1-palmitoyl-2-oleoyl-sn-glycero-3-phospho-(1’-rac-glycerol), and cardiolipin, all from Avanti Polar Lipid (Alabama, USA). LTA (Lipoteichoic acid from B. subtilis) was obtained from Invivogen SAS (Toulouse, France). Pure lipids were reconstituted in chloroform:methanol (2:1, v:v) at 1 mg/mL and stored at −20 °C under nitrogen. The interaction and insertion of the ENN and BEA into lipids were evaluated through the measurement of their critical pressure of insertion as previously described. Briefly, lipids were spread using a 50 µL Hamilton’s syringe at the surface of 800 µL of sterile PBS creating a lipid monolayer at the air–water interface. Lipids were added until the surface pressure reached the desired value. After 5–10 min of incubation allowing evaporation of the solvent and stabilization of the initial surface pressure, 8 µL of ENN or BEA diluted in sterile PBS at 100 µM were injected into the 800 µL sub-phase of PBS under the lipid monolayer (pH 7.4, volume 800 µL) using a 10 µL Hamilton syringe giving a final concentration of peptides of 1 µM, preliminary experiments having shown that this concentration gave optimal insertion. The variation of the surface pressure caused by peptide injection was then continuously monitored using a fully automated microtensiometer (µTROUGH SX, Kibron Inc., Helsinki, Finland) until reaching equilibrium (maximal surface pressure increase being usually obtained after 15–25 min). The critical pressure of insertion of each peptide was determined by changing the initial pressure of lipid monolayer (from 10 and 30 mN/m) and measuring the variation of pressure caused by the insertion of the peptide. The critical pressure of insertion of each peptide in a particular lipid was determined graphically and calculated as the theoretical value of initial pressure of lipid monolayer not permissive to peptide insertion, i.e., causing a variation of pressure equal to 0 mN/m.

[17] = system: Acinetobacter baumannii (CIP 110431)
[18] = system: F. oxysporum (DSMZ 62316); settings: DSMZ 62316, pH 7
[19] = system: Clostridium perfringens (ATCC 13124)
[20] = system: C. perfringens; assay type: cell-based, Clostridium perfringens; remark: listed apart in the source

SMILES | MIC, C. albicans [1] | MIC, S. aureus [2] | MIC, B. subtilis [3] | Known/possible target [4] | Observed Morphology [4] | IC50 [5] | MIC, F. verticillioides [6] | MIC, E. coli [7] | MIC, P. aeruginosa [8] | MIC, B. subtilis NR [9] | membrane depolarization at 100 µM [10] | membrane depolarization at four times their MIC [10] | MIC, H. pylori [11] | MIC, S. aureus MRSA [12] | MIC, M. smegmatis [13] | HC50 (dose causing 50% hemolysis), Erythrocytes [14] | MIC, A. flavus [15] | critical pressure of insertion, POPC [16] | critical pressure of insertion, POPE [16] | MIC, A. baumannii [17] | further results
CC[C@H](C)[C@H]1C(=O)O[C@H](C(C)C)C(=O)N(C)[C@@H]([C@@H](C)CC)C(=O)O[C@H](C(C)C)C(=O)N(C)[C@@H](C(C)C)C(=O)O[C@H](C(C)C)C(=O)N1C [ENN A1] | 1.5 µM (≈ 1 µg/mL) | 12.5 to 25 µM | 12.5 to 25 µM | RNA biosynthesis | • No cell elongation • DNA condensed in one filament crossing the cells | 3 ± 2 nM | >100 µM | >100 µM | >100 µM | 25 µM (≈ 16.7 µg/mL) | 97.4 ± 5.3% | 75.3 ± 2.0% | >100 µM | 12.5 to 25 µM | 3.12 µM (≈ 2.08 µg/mL) | 162.7 ± 22.8 µM | >100 µM | 38.06 mN/m | 34.38 mN/m | >100 µM | MIC, F. oxysporum [18]: >100 µM
CC[C@H](C)[C@H]1C(=O)O[C@H](C(C)C)C(=O)N(C)[C@@H]([C@@H](C)CC)C(=O)O[C@H](C(C)C)C(=O)N(C)[C@@H]([C@@H](C)CC)C(=O)O[C@H](C(C)C)C(=O)N1C [ENN A] | 1.5 µM (≈ 1.02 µg/mL) | 6.25 to 12.5 µM | 6.25 to 12.5 µM | RNA biosynthesis | • Some cell elongation • DNA condensed in one filament crossing the cells | 10 ± 10 nM | >100 µM | >100 µM | >100 µM | 6.25 to 12.5 µM | 108.9 ± 7.3% | 80.8 ± 3.2% | >100 µM | 6.25 to 12.5 µM | 6.25 µM (≈ 4.26 µg/mL) | 68.7 µM | >100 µM | 40.28 mN/m | 38.12 mN/m | >100 µM | MIC, C. perfringens [19]: 3.12 µM (≈ 2.13 µg/mL); percentage of membrane permeabilization at 100 µM, 120 min [20]: 37.1 ± 6.7%; percentage of permeabilization at four times the MIC [20]: 7.2 ± 2.5%; MIC, F. oxysporum [18]: >100 µM
CC[C@H](C)[C@H]1C(=O)O[C@H](C(C)C)C(=O)N(C)[C@@H](C(C)C)C(=O)O[C@H](C(C)C)C(=O)N(C)[C@@H](C(C)C)C(=O)O[C@H](C(C)C)C(=O)N1C [ENN B1] | 3.12 µM (≈ 2.04 µg/mL) | 25 µM (≈ 16.3 µg/mL) | 25 to 50 µM | Protein biosynthesis | • Some cell elongation (1.5–2 times compared to control) • DNA condensed in 1–4 circles per cells | 8 ± 8 nM | >100 µM | >100 µM | >100 µM | 50 µM (≈ 32.7 µg/mL) | 97.6 ± 9.1% | 68.0 ± 4.3% | >100 µM | 25 µM (≈ 16.3 µg/mL) | 6.25 µM (≈ 4.09 µg/mL) | 356.4 ± 59.3 µM | >100 µM | 36.19 mN/m | 31.87 mN/m | >100 µM | MIC, C. perfringens [19]: 6.25 µM (≈ 4.09 µg/mL); membrane depolarization at their MIC [10]: 47.4 ± 4.6% and 30–40%; MIC, F. oxysporum [18]: >100 µM
CC(C)[C@H]1C(=O)O[C@H](C(C)C)C(=O)N(C)[C@@H](C(C)C)C(=O)O[C@H](C(C)C)C(=O)N(C)[C@@H](C(C)C)C(=O)O[C@H](C(C)C)C(=O)N1C [ENN B] | 6.25 µM (≈ 4 µg/mL) | >100 µM | >100 µM | Protein biosynthesis | • Some cell elongation (1.5–2 times compared to control) • DNA condensed in 1–4 circles per cells | 1700 ± 100 nM | >100 µM | >100 µM | >100 µM | >100 µM | 44.9 ± 8.7% | 44.2 ±1.8% | >100 µM | >100 µM | 100 µM (≈ 64 µg/mL) | 534.5 µM | >100 µM | 32.92 mN/m | 30.15 mN/m | >100 µM | MIC, C. perfringens [19]: 12.5 µM (≈ 8 µg/mL); membrane depolarization at their MIC [10]: 36.4 ± 3.8% and 30–40%; percentage of membrane permeabilization at 100 µM, 120 min [20]: 19.6 ± 7.9%; MIC, F. oxysporum [18]: >100 µM
